Source: the supplement of paper PMC10307832

Key:
Assay in all cases: relative viability (nuclei count vs DMSO), 5 days (fraction); higher = more cells survive
[1] = compound: O=C(O)c1ccc2c(c1)nc(Nc1cccc(Cl)c1)c1ccncc12 [Silmitasertib] + CC(=O)c1c(C)c2cnc(Nc3ccc(N4CCNCC4)cn3)nc2n(C2CCCC2)c1=O [Palbociclib] (partner 0.5 µM)
Outline: (§1)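 Lung cancer cell lines, seeded in 1536-well plates, were treated the following day by pin tool with a single drug or with five library-drug doses (not always all listed) in √10 steps on top of a fixed anchor-drug dose. Cells were fixed and nuclei stained in one step after 5 days, and nuclei were counted. Relative viability is the nuclei count for treated wells divided by that for vehicle wells, reported as medians of duplicate plates.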

[2] = compound: O=C(O)c1ccc2c(c1)nc(Nc1cccc(Cl)c1)c1ccncc12 [Silmitasertib] + CC(C)C[C@H](NC(=O)[C@H](Cc1ccccc1)NC(=O)c1cnccn1)B(O)O [Bortezomib] (partner 0.002 µM)
Outline: as §1

Silmitasertib + OSI-027 = compound: O=C(O)c1ccc2c(c1)nc(Nc1cccc(Cl)c1)c1ccncc12 [Silmitasertib] + COc1cccc2cc(-c3nc([C@H]4CC[C@H](C(=O)O)CC4)n4ncnc(N)c34)[nH]c12 [OSI-027] (partner 0.5 µM)
Outline: as §1

[3] = compound: O=C(O)c1ccc2c(c1)nc(Nc1cccc(Cl)c1)c1ccncc12 [Silmitasertib] + Cc1cc(Nc2cc(N3CCN(C)CC3)nc(Sc3ccc(NC(=O)C4CC4)cc3)n2)n[nH]1 [Tozasertib] (partner 0.1 µM)
Outline: as §1

[4] = compound: O=C(O)c1ccc2c(c1)nc(Nc1cccc(Cl)c1)c1ccncc12 [Silmitasertib] + Nc1nc2[nH]cc(CCc3ccc(C(=O)N[C@@H](CCC(=O)O)C(=O)O)cc3)c2c(=O)[nH]1 [Pemetrexed] (partner 0.2 µM)
Outline: as §1

| Cell Line | relative viability ([1]; first compound 0.04 µM) | relative viability ([1]; first compound 0.4 µM) | relative viability ([1]; first compound 1.265 µM) | relative viability ([1]; first compound 4 µM) | relative viability ([2]; first compound 0.04 µM) | relative viability ([2]; first compound 0.4 µM) | relative viability ([2]; first compound 1.265 µM) | relative viability ([2]; first compound 4 µM) | relative viability (Silmitasertib + OSI-027; first compound 0.04 µM) | relative viability (Silmitasertib + OSI-027; first compound 0.4 µM) | relative viability (Silmitasertib + OSI-027; first compound 1.265 µM) | relative viability (Silmitasertib + OSI-027; first compound 4 µM) | relative viability ([3]; first compound 0.04 µM) | relative viability ([3]; first compound 0.4 µM) | relative viability ([3]; first compound 1.265 µM) | relative viability ([3]; first compound 4 µM) | relative viability ([4]; first compound 0.04 µM) | relative viability ([4]; first compound 0.4 µM) | relative viability ([4]; first compound 1.265 µM) | relative viability ([4]; first compound 4 µM) |
| --- | --- | --- | --- | --- | --- | --- | --- | --- | --- | --- | --- | --- | --- | --- | --- | --- | --- | --- | --- | --- |
| EMC-BAC-2 | 0.521 | 0.448 | 0.378 | 0.292 | 1.05 | 0.999 | 1.06 | 0.784 | 0.395 | 0.348 | 0.276 | 0.249 | 0.291 | 0.272 | 0.198 | 0.162 | 0.455 | 0.319 | 0.423 | 0.369 |
| PC-14 | 0.581 | – | 0.553 | 0.541 | 0.946 | 0.788 | 0.871 | 0.819 | 1.03 | 0.537 | 0.706 | 0.46 | 0.668 | – | 0.595 | 0.532 | 0.134 | – | 0.122 | 0.113 |
| NCI-H520 | 0.269 | 0.238 | 0.172 | 0.245 | 0.622 | 0.515 | 0.389 | 0.422 | 0.197 | 0.239 | 0.252 | 0.252 | 0.443 | 0.429 | 0.42 | 0.394 | 0.716 | 0.716 | 0.694 | 0.566 |
| NCI-H1755 | 0.436 | 0.443 | 0.456 | 0.447 | 0.91 | 0.905 | 0.95 | 0.945 | 0.726 | 0.764 | 0.728 | 0.721 | 0.572 | 0.519 | 0.623 | 0.714 | 0.422 | 0.489 | 0.383 | 0.386 |
| NCI-H2087 | 0.217 | 0.224 | 0.18 | 0.139 | 0.737 | 0.656 | 0.657 | 0.421 | 0.507 | – | 0.513 | 0.18 | 0.264 | – | 0.152 | 0.132 | 0.604 | 0.64 | 0.665 | 0.542 |
| NCI-H2023 | 0.336 | 0.458 | 0.337 | 0.354 | 1.13 | 0.557 | 0.946 | 0.282 | 0.503 | 0.345 | 0.343 | 0.251 | 0.46 | 0.321 | 0.24 | 0.252 | 0.278 | 0.187 | 0.266 | 0.21 |
| CAL-12T | 0.408 | 0.382 | 0.313 | 0.194 | 1.12 | 0.949 | 0.777 | 0.709 | 0.839 | 0.542 | 0.29 | 0.23 | 0.292 | 0.282 | 0.227 | 0.175 | 1.35 | 1.06 | 0.889 | 0.818 |
| NCI-H2085 | 0.461 | 0.446 | 0.473 | 0.439 | 1.19 | 0.614 | 0.873 | 0.889 | 0.914 | – | 0.704 | 0.466 | 0.82 | 0.737 | 0.602 | 0.533 | 1.02 | 0.647 | 0.833 | 0.867 |
| NCI-H650 | 0.319 | 0.236 | 0.266 | 0.259 | 0.996 | 0.515 | 0.614 | 0.345 | 0.699 | 0.424 | 0.515 | 0.366 | 0.874 | 0.492 | 0.496 | 0.355 | 0.981 | 0.433 | 0.912 | 0.659 |
| LCLC-97TM1 | 0.234 | – | 0.15 | 0.151 | 1.13 | – | 0.521 | 0.208 | 0.545 | – | 0.339 | 0.198 | 0.247 | – | 0.168 | 0.162 | 0.187 | – | 0.186 | 0.144 |
| NCI-H2126 | 0.357 | 0.353 | 0.356 | 0.349 | 1.08 | 0.98 | 1.08 | 1.05 | 0.725 | – | 0.596 | 0.602 | 0.845 | 0.759 | 0.793 | 0.709 | 0.734 | 0.623 | 0.672 | 0.491 |
| 201T | 0.353 | 0.346 | 0.37 | 0.387 | 1.03 | 1.1 | 1.16 | 1.2 | 0.821 | 0.631 | 0.719 | 0.462 | 0.955 | 0.818 | 1.04 | 1.05 | 0.381 | 0.229 | 0.341 | 0.381 |
| NCI-H1915 | 0.58 | – | 0.517 | 0.297 | 1.01 | – | 1.02 | 0.424 | 0.624 | – | 0.676 | 0.351 | 0.487 | – | 0.38 | 0.283 | 0.503 | – | 0.429 | 0.302 |
| BEN | 0.511 | 0.394 | 0.432 | 0.519 | 0.9 | 0.584 | 0.644 | 0.599 | 0.317 | – | 0.336 | 0.269 | 0.435 | 0.367 | 0.481 | 0.422 | 0.905 | 0.715 | 0.703 | 0.609 |
| NCI-H2347 | 0.43 | 0.418 | 0.38 | 0.394 | 1.27 | 0.593 | 0.881 | 0.652 | 0.414 | – | 0.398 | 0.336 | 0.663 | – | 0.56 | 0.419 | 0.44 | – | 0.363 | 0.42 |
| H3255 | 0.319 | 0.348 | 0.316 | 0.294 | 0.937 | 0.848 | 0.741 | 0.36 | 0.73 | 0.591 | 0.545 | 0.613 | 0.756 | 0.593 | 0.678 | 0.59 | 0.602 | 0.5 | 0.394 | 0.499 |
| NCI-H441 | 0.254 | – | 0.206 | 0.178 | 0.514 | – | 0.496 | 0.17 | 0.629 | – | 0.337 | 0.26 | 0.61 | – | 0.512 | 0.472 | 0.289 | – | 0.245 | 0.281 |
| NCI-H2228 | 1.02 | 0.313 | 0.467 | 0.701 | 1.46 | 0.92 | 0.912 | 1.13 | 0.541 | – | 0.583 | 0.494 | 0.287 | – | 0.247 | 0.23 | 0.331 | 0.337 | 0.333 | 0.307 |
| NCI-H1975 | 0.645 | – | 0.192 | 0.499 | 0.349 | 0.283 | 0.423 | 0.331 | 0.67 | – | 0.645 | 0.66 | 0.942 | – | 0.514 | 0.308 | 0.294 | – | 0.287 | 0.219 |
| NCI-H647 | 0.505 | 0.376 | 0.33 | 0.282 | 1.12 | 0.866 | 0.705 | 0.343 | 0.775 | 0.578 | 0.503 | 0.44 | 0.324 | 0.211 | 0.196 | 0.175 | 0.183 | 0.16 | 0.148 | 0.134 |
| A-427 | 0.555 | 0.451 | 0.583 | 0.517 | 1.1 | – | 1.24 | 0.703 | 0.617 | – | 0.425 | 0.192 | 0.19 | – | 0.132 | 0.15 | 1.04 | 0.826 | 1.05 | 0.669 |
| LXF-289 | 0.606 | – | 0.657 | 0.66 | 1.02 | – | 1.05 | 0.979 | 0.78 | – | 0.805 | 0.532 | 0.212 | – | 0.186 | 0.182 | 0.968 | – | 0.8 | 0.824 |
| NCI-H1437 | 0.305 | 0.26 | 0.221 | 0.222 | 0.594 | – | 0.384 | 0.474 | 0.946 | 0.623 | 0.598 | 0.457 | 0.397 | 0.406 | 0.3 | 0.241 | 0.337 | 0.3 | 0.254 | 0.228 |
| RERF-LC-KJ | 1.16 | 0.993 | 0.758 | 0.798 | 1.15 | 0.95 | 0.779 | 0.574 | 0.627 | 0.484 | 0.41 | 0.373 | 0.546 | 0.531 | 0.382 | 0.248 | 0.488 | 0.445 | 0.439 | 0.342 |
| HCC-44 | 0.975 | 1.06 | 1.01 | 0.959 | 0.858 | 0.753 | 0.883 | 0.49 | 0.524 | 0.606 | 0.508 | 0.29 | 1.13 | 0.853 | 0.802 | 0.691 | 0.63 | 0.667 | 0.71 | 0.661 |
| EPLC-272H | 0.319 | – | 0.343 | 0.304 | 0.906 | – | 0.573 | 0.491 | 0.301 | – | 0.24 | 0.178 | 0.215 | – | 0.205 | 0.187 | 0.374 | 0.359 | 0.385 | 0.122 |
| NCI-H322M | 0.411 | 0.486 | 0.422 | 0.351 | 1.25 | 0.881 | 0.947 | 0.804 | 0.619 | 0.467 | 0.383 | 0.372 | 0.51 | 0.505 | 0.377 | 0.342 | 0.666 | 0.536 | 0.595 | 0.482 |
